The numbers were not newly measured in article PMC8623851, “The Structural Determinants for α1-Adrenergic/Serotonin Receptors Activity among Phenylpiperazine-Hydantoin Derivatives” (Molecules, 2021), which cites them from elsewhere.

As usually defined, the Ki is the equilibrium dissociation constant of an inhibitor or competing ligand from its target.

The target in series [1] is α1DR. On the set-up: method as in PMID 31330215. Particulars: cited from earlier work.
Series [2] concerns the target α1AR. On the set-up: method as in PMID 31330215. Particulars: cited from earlier work.
For series [3], the target named is 5-HT1AR. Further details: method as in PMID 31330215. Particulars: cited from earlier work.
The target in series [4] is α1BR. On the set-up: method as in PMID 31330215. Particulars: cited from earlier work.
For series [5], the system named is behavioral models. Further details: method as in PMID 31330215. Particulars: cited from earlier work.
For series [6], the target named is 5-HT2AR. On the set-up: method as in PMID 31330215. Particulars: cited from earlier work.
In series [7] the target is α1-receptor. Further details: method as in PMID 31383628, PMID 29425815. Particulars: previously reported arylpiperazine hydantoin derivatives; cited from earlier work.
Series [8] addresses human 5-HT7b receptor (Homo sapiens, UniProt P34969). On the set-up: expressed in transfected cells; host or cells: HEK-293; method as in PMID 31383628, PMID 29425815. Particulars: previously reported arylpiperazine hydantoin derivatives; read-out: Ki 5-HT7; cited from earlier work.

human 5-HT7b receptor, sequence (P34969 1-432): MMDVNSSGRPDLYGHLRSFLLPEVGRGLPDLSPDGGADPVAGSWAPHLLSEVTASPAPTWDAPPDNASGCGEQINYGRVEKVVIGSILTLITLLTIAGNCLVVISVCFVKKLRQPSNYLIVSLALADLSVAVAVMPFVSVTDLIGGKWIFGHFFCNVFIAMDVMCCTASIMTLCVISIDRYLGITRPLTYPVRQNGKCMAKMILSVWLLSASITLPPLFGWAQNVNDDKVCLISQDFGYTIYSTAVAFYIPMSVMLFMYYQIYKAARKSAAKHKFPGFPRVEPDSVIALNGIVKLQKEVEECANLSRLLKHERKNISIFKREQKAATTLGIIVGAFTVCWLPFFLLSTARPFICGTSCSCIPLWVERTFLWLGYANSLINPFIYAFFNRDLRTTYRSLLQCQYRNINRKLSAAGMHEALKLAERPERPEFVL

Consider `COc1ccccc1N1CCN(CCn2cnc3ccccc3c2=O)CC1` [ACH-000029], for which the inhibition constant Ki in series [1] is 1.1 nM; in series [2], 0.07 nM; in series [3], 14 nM; in series [4], 4.6 nM; in series [6], 500 nM. The anxiolytic activity entry in series [5] was “anxiolytic activity in behavioral models”.
On to `COc1ccccc1N1CCN(CC(O)CN2C(=O)NC(C)(c3ccc(F)cc3)C2=O)CC1` (stereo not drawn) [Compound 2], for which the inhibition constant Ki in series [7] was 230 nM.
For `COc1ccc(C2(C)NC(=O)N(CC(O)CN3CCN(c4ccccc4OC)CC3)C2=O)cc1` (stereo not drawn) [Compound 3], the inhibition constant Ki is 8 nM in series [8] and 530 nM in series [7].
